For one assay, the target named is KRAS G12D (Homo sapiens, UniProt P01116, G12D). Put plainly: GDP-GTP exchange assay (bodipy-GDP/GppNHp, SOS1), KRAS G12D. Type of assay: biochemical. To be noted: 2.5 nM bodipy-loaded KRAS G12D, 4 h pre-incubation, 2 h reaction with GppNHp and SOS1; for certain compounds the most potent isomer is quoted; read-out: KRAS_G12D exchange assay IC50. In short, it runs like this:
(§1)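 Bodipy-GDP-loaded KRAS G12D or G12V (2.5 nM) pre-incubated 4 h at r.t. with inhibitor in Hepes pH 7.5, 10 mM MgCl2, then exchange started with 500 μM GppNHp and 150 nM SOS1 (final); 2 h (G12D) or 3 h (G12V). Fluorescence at 485/520 nm; IC50 from four-parameter logistic fit.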

In another assay the target is KRAS G12V (Homo sapiens, UniProt P01116, G12V). The experiment in a line: GDP-GTP exchange assay (bodipy-GDP/GppNHp, SOS1), KRAS G12V. Type of assay: biochemical. The following applies: 2.5 nM bodipy-loaded KRAS G12V, 3 h incubation after adding GppNHp-SOS1; for certain compounds the most potent isomer is quoted; read-out: KRAS_G12V exchange assay IC50. In short, it runs like this: as §1
Sequence of KRAS G12V (P01116 1-188 isoform P01116-2 G12V): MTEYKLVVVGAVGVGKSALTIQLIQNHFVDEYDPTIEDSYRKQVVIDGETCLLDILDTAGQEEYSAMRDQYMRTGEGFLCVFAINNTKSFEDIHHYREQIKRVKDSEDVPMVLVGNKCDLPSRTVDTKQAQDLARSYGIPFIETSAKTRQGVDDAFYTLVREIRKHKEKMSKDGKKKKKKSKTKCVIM

Sequence of KRAS G12D (P01116 1-188 isoform P01116-2 G12D): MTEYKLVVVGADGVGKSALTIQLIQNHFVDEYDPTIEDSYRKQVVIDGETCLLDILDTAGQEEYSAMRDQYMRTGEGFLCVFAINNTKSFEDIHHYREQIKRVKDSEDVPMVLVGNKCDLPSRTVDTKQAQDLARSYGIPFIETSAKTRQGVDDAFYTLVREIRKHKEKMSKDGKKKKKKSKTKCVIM

As for `Cc1nc2c(F)c(-c3cccc(Cl)c3Cl)c(CCC#N)cc2c2c1cc([C@H]1[C@H]3C[C@H](C[C@@H]3F)N1C(=O)C1CC1)n2C1[C@H]2CN[C@@H]1C2` (stereo partly drawn) [Example 20, 3-(1-((1R,4R)-2-azabicyclo[2.1.1]hexan-5-yl)-2-((1R,3R,4R,5S)-2-(cyclopropanecarbonyl)-5-fluoro-2-azabicyclo[2.2.1]heptan-3-yl)-7-(2,3-dichlorophenyl)-6-fluoro-4-methyl-1H-pyrrolo[3,2-c]quinolin-8-yl)propanenitrile], the IC50 on KRAS G12D and at KRAS G12V was ≤ 100 nM in each case.
On to `Cc1nc2c(F)c(-c3cccc(Cl)c3Cl)c(CCC#N)cc2c2c1cc([C@H]1[C@H]3C[C@H](C[C@H]3O)N1C(=O)C1CC1)n2C1[C@H]2CN[C@@H]1C2` (stereo partly drawn) [Example 21, 3-(1-((1R,4R)-2-azabicyclo[2.1.1]hexan-5-yl)-2-((1R,3R,4R,5R)-2-(cyclopropanecarbonyl)-5-hydroxy-2-azabicyclo[2.2.1]heptan-3-yl)-7-(2,3-dichlorophenyl)-6-fluoro-4-methyl-1H-pyrrolo[3,2-c]quinolin-8-yl)propanenitrile], for which the IC50 at KRAS G12D and on KRAS G12V was 100 to 1000 nM each time.
For the compound `CO[C@@H]1C[C@H]2C[C@@H]1[C@H](c1cc3c(C)nc4c(F)c(-c5cccc(Cl)c5Cl)c(CCC#N)cc4c3n1C1[C@H]3CN[C@@H]1C3)N2C(=O)C1CC1` (stereo partly drawn) [Example 22, 3-(1-((1R,4R)-2-azabicyclo[2.1.1]hexan-5-yl)-2-((1R,3R,4R,5R)-2-(cyclopropanecarbonyl)-5-methoxy-2-azabicyclo[2.2.1]heptan-3-yl)-7-(2,3-dichlorophenyl)-6-fluoro-4-methyl-1H-pyrrolo[3,2-c]quinolin-8-yl)propanenitrile], the IC50 on KRAS G12D and on KRAS G12V was 100 to 1000 nM each time.
Consider `[2H]C([2H])([2H])O[C@H]1C[C@H]2C[C@@H]1[C@H](c1cc3c(C)nc4c(F)c(-c5cccc(Cl)c5Cl)c(CCC#N)cc4c3n1C1[C@H]3CN[C@@H]1C3)N2C(=O)C1CC1` (stereo partly drawn) [Example 23, 3-(1-((1R,4R)-2-azabicyclo[2.1.1]hexan-5-yl)-2-((1R,3R,4R,5S)-2-(cyclopropanecarbonyl)-5-(methoxy-d3)-2-azabicyclo[2.2.1]heptan-3-yl)-7-(2,3-dichlorophenyl)-6-fluoro-4-methyl-1H-pyrrolo[3,2-c]quinolin-8-yl)propanenitrile], for which the IC50 on KRAS G12D and on KRAS G12V was ≤ 100 nM throughout.
With `Cc1nc2c(F)c(-c3cccc(Cl)c3Cl)c(CCC#N)cc2c2c1cc([C@H]1[C@H]3C[C@H]([C@@H]4C[C@@H]43)N1C(=O)C1CC1)n2C1C2CNC1C2` (stereo partly drawn) [Example 24, 3-(1-(2-azabicyclo[2.1.1]hexan-5-yl)-2-((1S,2S,4R,5R,7R)-6-(cyclopropanecarbonyl)-6-azatricyclo[3.2.1.02,4]octan-7-yl)-7-(2,3-dichlorophenyl)-6-fluoro-4-methyl-1H-pyrrolo[3,2-c]quinolin-8-yl)propanenitrile], the 50% inhibitory concentration (IC50) on KRAS G12D and at KRAS G12V was ≤ 100 nM each time.
Regarding `Cc1nc2c(F)c(-c3cccc(Cl)c3Cl)c(CCC#N)cc2c2c1cc([C@H]1[C@H]3CC[C@H](C3)N1C(=O)C1CC1)n2C1C2CNC1C2` (stereo partly drawn) [Example 25, 3-(1-(2-azabicyclo[2.1.1]hexan-5-yl)-2-((1R,3R,4S)-2-(cyclopropanecarbonyl)-2-azabicyclo[2.2.1]heptan-3-yl)-7-(2,3-dichlorophenyl)-6-fluoro-4-methyl-1H-pyrrolo[3,2-c]quinolin-8-yl)propanenitrile], the IC50 on KRAS G12D lay in the range of 1000 to 5000 nM; on KRAS G12V, 5000 to 10000 nM.
The like results for `Cc1nc2c(F)c(-c3cccc(Cl)c3Cl)c(CCC#N)cc2c2c1cc([C@H]1[C@@H]3C[C@@H]([C@@H]4C[C@@H]43)N1C(=O)C1CC1)n2C1C2CNC1C2` (stereo partly drawn) [Example 26, 3-(1-(2-azabicyclo[2.1.1]hexan-5-yl)-2-((1R,2S,4R,5S,7R)-6-(cyclopropanecarbonyl)-6-azatricyclo[3.2.1.02,4]octan-7-yl)-7-(2,3-dichlorophenyl)-6-fluoro-4-methyl-1H-pyrrolo[3,2-c]quinolin-8-yl)propanenitrile] were, in that order, 5000 to 10000 nM and 5000 to 10000 nM.
Turning to `Cc1nc2c(F)c(-c3cccc(Cl)c3Cl)c(CCC#N)cc2c2c1cc([C@H]1[C@H]3C[C@H](C[C@@H]3Oc3cccnc3)N1C(=O)C1CC1)n2C1[C@H]2CN[C@@H]1C2` (stereo partly drawn) [Example 27, 3-(1-((1R,4R)-2-azabicyclo[2.1.1]hexan-5-yl)-2-((1R,3R,4R,5S)-2-(cyclopropanecarbonyl)-5-(pyridin-3-yloxy)-2-azabicyclo[2.2.1]heptan-3-yl)-7-(2,3-dichlorophenyl)-6-fluoro-4-methyl-1H-pyrrolo[3,2-c]quinolin-8-yl)propanenitrile], the concentration for half-maximal inhibition (IC50) at KRAS G12D and at KRAS G12V was ≤ 100 nM throughout.
Regarding `Cc1nc2c(F)c(-c3cccc(Cl)c3Cl)c(CCC#N)cc2c2c1cc([C@H]1[C@H]3C[C@H](C[C@@H]3Oc3ccccn3)N1C(=O)C1CC1)n2C1[C@H]2CN[C@@H]1C2` (stereo partly drawn) [Example 28, 3-(1-((1R,4R)-2-azabicyclo[2.1.1]hexan-5-yl)-2-((1R,3R,4R,5S)-2-(cyclopropanecarbonyl)-5-(pyridin-2-yloxy)-2-azabicyclo[2.2.1]heptan-3-yl)-7-(2,3-dichlorophenyl)-6-fluoro-4-methyl-1H-pyrrolo[3,2-c]quinolin-8-yl)propanenitrile], the IC50 at KRAS G12D and at KRAS G12V was ≤ 100 nM in each case.
Regarding `Cc1nc2c(F)c(-c3cccc(Cl)c3Cl)c(CCC#N)cc2c2c1cc([C@H]1[C@H]3C[C@H](C[C@@H]3OCc3ccccc3)N1C(=O)C1CC1)n2C1[C@H]2CN[C@@H]1C2` (stereo partly drawn) [Example 29, 3-(2-((1R,3R,4R,5S)-5-(benzyloxy)-2-(cyclopropanecarbonyl)-2-azabicyclo[2.2.1]heptan-3-yl)-1-((1R,4R)-2-azabicyclo[2.1.1]hexan-5-yl)-7-(2,3-dichlorophenyl)-6-fluoro-4-methyl-1H-pyrrolo[3,2-c]quinolin-8-yl)propanenitrile], the IC50 on KRAS G12D and at KRAS G12V was ≤ 100 nM in each case.
Consider `Cc1nc2c(F)c(-c3cccc(Cl)c3Cl)c(CCC#N)cc2c2c1cc([C@H]1[C@H]3C[C@H](C[C@@H]3OC(F)F)N1C(=O)C1CC1)n2C1[C@H]2CN[C@@H]1C2` (stereo partly drawn) [Example 30, 3-((7R)-1-((1R,4R)-2-azabicyclo[2.1.1]hexan-5-yl)-2-((1R,3R,4R,5S)-2-(cyclopropanecarbonyl)-5-(difluoromethoxy)-2-azabicyclo[2.2.1]heptan-3-yl)-7-(2,3-dichlorophenyl)-6-fluoro-4-methyl-1H-pyrrolo[3,2-c]quinolin-8-yl)propanenitrile], for which the IC50 on KRAS G12D and at KRAS G12V was ≤ 100 nM in each case.
As for `Cc1nc2c(F)c(-c3cccc(Cl)c3Cl)c(CCC#N)cc2c2c1cc([C@H]1[C@H]3C[C@H](C[C@@H]3OC3CC3)N1C(=O)C1CC1)n2[C@H]1[C@H]2CN[C@@H]1C2` [Example 36, 3-(1-((1R,4R,5S)-2-Azabicyclo[2.1.1]hexan-5-yl)-2-((1R,3R,4R,5S)-2-(cyclopropanecarbonyl)-5-cyclopropoxy-2-azabicyclo[2.2.1]heptan-3-yl)-7-(2,3-dichlorophenyl)-6-fluoro-4-methyl-1H-pyrrolo[3,2-c]quinolin-8-yl)propanenitrile], the IC50 on KRAS G12D and at KRAS G12V was ≤ 100 nM throughout.

A word on the IC50: it is the concentration that inhibits the measured activity by half.

(Values after patent publication US20240368156A1, “2-AZABICYCLO[2.2.1]HEPTANE KRAS INHIBITORS” (INCYTE CORPORATION, priority 2023, published 2024).)
